The NIST ThermoML archive (doi:10.1016/j.tca.2018.07.003)
Numbers after ± are expanded uncertainties. Values belong to the compound of their own block, whether it stands above or below them.

Tests used:
[1] = 295 K; 77 kPa; Liquid; transient hot wire
[2] = wn = mass fraction of the nth substance listed; details: 295 K, 77 kPa, Liquid, transient hot wire
[3] = heat capacity at constant pressure per volume; wn = mass fraction of the nth substance listed; details: 295 K, 77 kPa, Liquid, From thermal conductivity and thermal effusivity measured separately

SMILES: CC(C)CC(C)(C)C [2,2,4-trimethylpentane] + CCCCCCC
thermal conductivity ([2]; w1 = 0.2): 0.116 ± 0.004 W/m/K
thermal conductivity ([2]; w1 = 0.4): 0.113 ± 0.004 W/m/K
thermal conductivity ([2]; w1 = 0.6): 0.107 ± 0.004 W/m/K
thermal conductivity ([2]; w1 = 0.8): 0.104 ± 0.004 W/m/K
thermal conductivity ([2]; w1 = 1): 0.096 ± 0.004 W/m/K
heat capacity ([3]; w1 = 0.2): 1390000 ± 90000 J/K/m3
heat capacity ([3]; w1 = 0.4): 1310000 ± 90000 J/K/m3
heat capacity ([3]; w1 = 0.6): 1310000 ± 80000 J/K/m3
heat capacity ([3]; w1 = 0.8): 1290000 ± 80000 J/K/m3
heat capacity ([3]; w1 = 1): 1340000 ± 90000 J/K/m3

SMILES: O [water]
thermal conductivity [1]: 0.6 ± 0.02 W/m/K

SMILES: CCCCCCC [heptane]
thermal conductivity [1]: 0.119 ± 0.004 W/m/K

SMILES: CCCCCCC [heptane] + CC(C)CC(C)(C)C
thermal conductivity ([2]; w2 = 0): 0.119 ± 0.004 W/m/K
heat capacity ([3]; w2 = 0): 1480000 ± 100000 J/K/m3

The next lines start with the values.

thermal conductivity [1]: 0.208 ± 0.008 W/m/K
SMILES: CO [methanol]

thermal conductivity [1]: 0.254 ± 0.01 W/m/K
SMILES: OCCO [1,2-ethanediol]

thermal conductivity [1]: 0.096 ± 0.004 W/m/K
SMILES: CC(C)CC(C)(C)C [2,2,4-trimethylpentane]

thermal conductivity [1]: 0.289 ± 0.01 W/m/K
SMILES: OCC(O)CO [glycerol]
